Format in all cases: binding
In assay [1] the target is T1, BoGH43A (Bacteroides ovatus, UniProt A7LXT8).
T1 construct: gene BACOVA_02654; pET28a construct with N-terminal His6-tag
Put plainly: crystal structure of the complex (soak); too weak to be measured by ITC.

The next assay concerns the target T2, BoGH3B (Bacteroides ovatus, UniProt A7LXU3).
T2 construct: gene BACOVA_02659; expressed from pET21a(GH3B)
T2 sequence (A7LXU3 23-786): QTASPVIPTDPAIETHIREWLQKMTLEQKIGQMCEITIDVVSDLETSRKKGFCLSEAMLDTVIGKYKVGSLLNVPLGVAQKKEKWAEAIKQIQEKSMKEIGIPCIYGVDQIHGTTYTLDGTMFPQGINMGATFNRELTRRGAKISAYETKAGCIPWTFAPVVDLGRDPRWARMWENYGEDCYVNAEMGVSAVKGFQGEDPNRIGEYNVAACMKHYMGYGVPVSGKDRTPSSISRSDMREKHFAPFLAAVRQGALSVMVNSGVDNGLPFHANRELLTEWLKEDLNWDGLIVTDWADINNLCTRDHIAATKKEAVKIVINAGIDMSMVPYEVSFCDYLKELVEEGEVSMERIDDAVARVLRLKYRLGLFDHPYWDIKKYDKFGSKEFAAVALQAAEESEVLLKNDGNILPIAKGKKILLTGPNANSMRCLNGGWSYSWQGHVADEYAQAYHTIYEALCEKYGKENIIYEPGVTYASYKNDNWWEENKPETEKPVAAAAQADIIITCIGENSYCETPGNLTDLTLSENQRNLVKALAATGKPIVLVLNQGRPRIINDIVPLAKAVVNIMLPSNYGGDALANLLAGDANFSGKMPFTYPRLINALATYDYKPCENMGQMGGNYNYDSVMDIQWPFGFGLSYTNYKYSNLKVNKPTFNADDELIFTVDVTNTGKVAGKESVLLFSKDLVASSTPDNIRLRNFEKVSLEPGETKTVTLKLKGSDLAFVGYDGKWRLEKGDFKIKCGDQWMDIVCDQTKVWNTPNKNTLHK
The experiment in a line: crystal structure; glucose co-purified in the active site.

For the next assay, the target named is T3, BoGH31 (Bacteroides ovatus, UniProt A7LXT0).
T3 construct: gene BACOVA_02646; pET-YSBL3C construct with N-terminal His6-tag and 3C-cleavage site
T3 sequence (A7LXT0 22-954): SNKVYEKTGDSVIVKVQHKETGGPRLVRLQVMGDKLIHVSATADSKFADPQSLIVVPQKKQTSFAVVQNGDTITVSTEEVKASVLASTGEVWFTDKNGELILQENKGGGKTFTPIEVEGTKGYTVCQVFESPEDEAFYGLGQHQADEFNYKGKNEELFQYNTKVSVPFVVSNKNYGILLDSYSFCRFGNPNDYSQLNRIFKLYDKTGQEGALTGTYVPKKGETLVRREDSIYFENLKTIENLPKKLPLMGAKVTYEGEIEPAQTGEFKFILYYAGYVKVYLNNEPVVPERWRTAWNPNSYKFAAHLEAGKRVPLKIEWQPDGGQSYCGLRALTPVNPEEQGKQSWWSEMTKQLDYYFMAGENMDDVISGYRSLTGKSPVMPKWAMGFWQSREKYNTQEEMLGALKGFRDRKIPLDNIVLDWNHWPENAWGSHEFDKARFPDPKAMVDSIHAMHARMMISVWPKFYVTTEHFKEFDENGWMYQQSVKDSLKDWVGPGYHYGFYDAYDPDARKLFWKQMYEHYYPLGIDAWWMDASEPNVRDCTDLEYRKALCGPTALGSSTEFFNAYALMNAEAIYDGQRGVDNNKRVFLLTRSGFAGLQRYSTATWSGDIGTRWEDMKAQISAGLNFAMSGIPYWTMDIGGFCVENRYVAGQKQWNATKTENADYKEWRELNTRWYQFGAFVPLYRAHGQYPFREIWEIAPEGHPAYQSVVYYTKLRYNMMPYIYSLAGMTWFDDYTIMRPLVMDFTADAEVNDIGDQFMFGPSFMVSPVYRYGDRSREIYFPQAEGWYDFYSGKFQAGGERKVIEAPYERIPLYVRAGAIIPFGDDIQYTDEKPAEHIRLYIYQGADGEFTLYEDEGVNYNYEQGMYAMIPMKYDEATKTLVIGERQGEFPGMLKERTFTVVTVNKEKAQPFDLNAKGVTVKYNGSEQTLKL
The experiment in a line: crystal structure of covalent glycosyl-enzyme intermediate (soak).

For assay [2], the target named is T1, BoGH43A. Put plainly: ITC and crystal structure of the complex.
Another assay deals with T4, BoGH43B (Bacteroides ovatus, UniProt A7LXU0).
T4 construct: gene BACOVA_02656; expressed from pET21a(BoGH43B)
T4 sequence (A7LXU0 24-529): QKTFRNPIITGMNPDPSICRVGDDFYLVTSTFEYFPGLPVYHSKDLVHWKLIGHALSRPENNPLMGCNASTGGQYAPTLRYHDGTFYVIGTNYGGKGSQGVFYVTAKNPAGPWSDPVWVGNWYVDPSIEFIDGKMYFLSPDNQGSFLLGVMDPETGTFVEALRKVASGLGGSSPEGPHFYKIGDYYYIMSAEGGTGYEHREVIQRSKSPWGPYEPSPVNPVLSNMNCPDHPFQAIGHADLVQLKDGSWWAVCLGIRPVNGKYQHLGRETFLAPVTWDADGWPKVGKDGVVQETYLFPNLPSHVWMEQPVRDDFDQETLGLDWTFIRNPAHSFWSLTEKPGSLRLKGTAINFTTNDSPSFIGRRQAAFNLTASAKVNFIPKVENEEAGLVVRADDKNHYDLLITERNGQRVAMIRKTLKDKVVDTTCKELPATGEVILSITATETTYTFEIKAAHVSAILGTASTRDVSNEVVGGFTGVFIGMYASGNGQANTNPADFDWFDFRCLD
The experiment in a line: ITC. (In general: Isothermal titration calorimetry measures the heat released or taken up as one component is titrated into another.)

T1 sequence (A7LXT8 21-526): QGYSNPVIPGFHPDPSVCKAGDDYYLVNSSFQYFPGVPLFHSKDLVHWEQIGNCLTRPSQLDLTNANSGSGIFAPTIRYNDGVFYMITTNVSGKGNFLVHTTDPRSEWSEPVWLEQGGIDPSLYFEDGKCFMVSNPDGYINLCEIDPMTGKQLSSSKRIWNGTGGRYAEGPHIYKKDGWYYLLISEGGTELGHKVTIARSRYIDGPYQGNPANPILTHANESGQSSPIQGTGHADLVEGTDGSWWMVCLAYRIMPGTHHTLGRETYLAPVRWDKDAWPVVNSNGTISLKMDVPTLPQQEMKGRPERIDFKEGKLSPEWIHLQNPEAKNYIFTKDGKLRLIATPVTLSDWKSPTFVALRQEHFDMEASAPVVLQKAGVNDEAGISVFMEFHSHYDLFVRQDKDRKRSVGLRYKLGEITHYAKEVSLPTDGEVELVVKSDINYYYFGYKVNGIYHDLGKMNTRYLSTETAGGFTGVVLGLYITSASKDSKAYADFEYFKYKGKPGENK

On to `OC[C@@H]1O/C(=N\O)[C@H](O)[C@H]1O` [AraLOG, (Z)-L-Arabinonhydroximo-1,4-lactone], for which the “crystal structure of the complex (soak); too weak to be measured by ITC” value at BoGH43A [1] was “the inhibitor stacking against Tyr187 while also H-bonding directly to the side chains of Glu210 and Glu189”.
As for `OC[C@H]1O[C@@H](O)[C@H](O)[C@@H](O)[C@@H]1O` [glucose], the “crystal structure; glucose co-purified in the active site” value on BoGH3B is “BoGH3B was found to co-purify with glucose in its active site (figure 5b)”.
With `OC[C@]1(F)O[C@H](F)[C@H](O)[C@@H](O)[C@@H]1O` [5FIdoF, 5-fluoro-β-L-idosyl fluoride], on BoGH31, the “crystal structure of covalent glycosyl-enzyme intermediate (soak)” value was 5FIdoF forms an α-glycosidic linkage to the side-chain carboxylate of Asp553.
For the compound `OC[C@@H]1NC[C@H](O)[C@H]1O` [AraDNJ], the Kd (as a rule, the concentration at which binding is half-saturated) was determined as 35 ± 4 µM at BoGH43A [2] and 111 ± 6 µM on BoGH43B.

The values are drawn from publication PMC4967831, “Structural dissection of a complex Bacteroides ovatus gene locus conferring xyloglucan metabolism in the human gut” (Open Biology, 2016).
